{"source": "BindingDB's records for doi:10.1016/s0960-894x(98)00672-6", "about": "(University of Maryland, 1999)", "biological_target": "Guanine deaminase (Oryctolagus cuniculus)", "experiment": "Compound was tested for its inhibitory effect on rabbit liver guanase", "data": [{"molecule": "O=c1cnc2c(ncn2Cc2ccccc2)c(=O)[nH]1", "note": "[3-Benzyl-3H-imidazo[4,5-e][1,4]diazepine-6,8-dione]", "values": [{"measurement": "Ki", "value": 227, "unit": "µM"}]}]}
